From patent publication US5744424A
≈ marks a conversion by molar mass, not a printed value. Each block holds one molecule with its values, some of them ahead of it.

Assays:
[1] = water; 18° C.; cited from earlier work
turf grasses = experiment: Force required to extract grass sod plugs (root density, FIG. 4)
[2] = cited from earlier work
physchem [3] = experiment: physchem
Description: where Percent "S" is the per unit volume of N^6 BA expressed as a percentage and "N" is the Normality of the solution after dissolution of N^6 BA in the solution.

plant species = settings: cited from earlier work
physchem [4] = settings: water koh 0.0025 n
Description: The solubility data enable address a second underlying problem encountered when the aqueous hydroxide solution is employed.

[5] = cited from earlier work; remark: listed apart in the source

Compound: [Ca+2].[OH-].[OH-] [Calcium hydroxide]
normality of saturated solution [1]: 9.6

Compound: [K+].[OH-] [KOH, potassium hydroxide]
normality of saturated solution [1]: 18.0

solubility (physchem [3]; aqueous koh 2.875 n): ~455 mg/mL (≈ 2020 mM)
solubility (physchem [3]; koh in 95% ethanol, organic solvent or mixture): ~540 mg/mL (≈ 2400 mM)
solubility (physchem [4]): 0.062 mg/mL (≈ 0.275 mM)
Compound: c1ccc(CNc2ncnc3nc[nH]c23)cc1 [N^6 BA]
efficacy of N^6 BA in presence of iron (turf grasses; large amount of ferrous iron ions): a decrease in the efficacy of N^6 BA
dissolved concentration in mineral acids ([2]; mineral acids): approximately 5%
solubility in water ([2]; water): about 0.00044 grams per 100 milliliters
responses elicited in plants (plant species; general): promotion of cell division, inhibition of respiration, increasing retention of water and drought resistance, enhancing root and top growth with change in root/top ratios as well as shortening plant internodes
chlorophyll retention (plant species; pre and post harvest commodities): increase chlorophyll retention

Compound: [Na+].[OH-] [NaOH, sodium hydroxide]
normality of saturated solution [1]: 21.0

Compound: O.O.O.O.O.O.O.O=S(=O)([O-])[O-].[Fe+2] [iron, Ferrous sulphate heptahydrate]
root development (turf grasses; iron to N^6 BA molecular ratio of about 200:1 or greater): substantially decreases root development
practical concentration of iron in liquid spray concentrates [5]: 5-6%

Compound: [Mg+2].[OH-].[OH-] [magnesium hydroxide]
normality of saturated solution [1]: 8.2

Compound: [OH-].[OH-].[Zn+2] [zinc hydroxide]
normality of saturated solution [1]: 9.4
